Assay results from patent US8394952B2 (Vertex Pharmaceuticals Incorporated, priority 2006, dated 2013).
“And” between values parts separate entries of the source, which are not always exact repeats. Identical values can stand only once.

Target: Plk1 (Homo sapiens, UniProt P53350)
Test: biochemical

Sequence of Plk1 (P53350 20-338): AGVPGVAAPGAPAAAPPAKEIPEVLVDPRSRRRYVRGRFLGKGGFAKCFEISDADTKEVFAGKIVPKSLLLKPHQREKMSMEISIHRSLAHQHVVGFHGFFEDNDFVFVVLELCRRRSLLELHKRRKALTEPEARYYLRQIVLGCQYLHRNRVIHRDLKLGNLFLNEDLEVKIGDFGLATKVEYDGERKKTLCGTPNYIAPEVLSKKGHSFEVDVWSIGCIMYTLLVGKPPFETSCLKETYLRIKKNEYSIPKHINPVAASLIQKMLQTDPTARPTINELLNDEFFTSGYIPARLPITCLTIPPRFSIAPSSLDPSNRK

Compound	Ki
CNC(=O)c1ccc(Nc2ncc3c(n2)N(C2CCC2)CC(C)(C)C(=O)N3C)c(OC)c1 [Compound I-167, 4-(9-cyclobutyl-6,7,8,9-tetrahydro-5,7,7-trimethyl-6-oxo-5H-pyrimido[4,5-b][1,4]diazepin-2-ylamino)-3-methoxy-N-methylbenzamide]	< 10 nM
CNC(=O)c1ccc(Nc2ncc3c(n2)N(C2CC(F)(F)C2)CC(C)(C)C(=O)N3C)c(OC)c1 [Compound I-170, 4-(9-(3,3-difluorocyclobutyl)-6,7,8,9-tetrahydro-5,7,7-trimethyl-6-oxo-5H-pyrimido[4,5-b][1,4]diazepin-2-ylamino)-3-methoxy-N-methylbenzamide]	< 10 nM
COc1cc(C(=O)NC2CCOCC2)ccc1Nc1ncc2c(n1)N(C1CC(F)(F)C1)CC(C)(C)C(=O)N2C [Compound I-171, 4-(9-(3,3-difluorocyclobutyl)-6,7,8,9-tetrahydro-5,7,7-trimethyl-6-oxo-5H-pyrimido[4,5-b][1,4]diazepin-2-ylamino)-N-(tetrahydro-2H-pyran-4-yl)-3-methoxybenzamide]	< 10 nM
COc1cc(C(=O)N[C@H]2CCOC2)ccc1Nc1ncc2c(n1)N(C1CCCC1)CC(C)(C)C(=O)N2C [Compound I-172, 4-(9-cyclopentyl-6,7,8,9-tetrahydro-5,7,7-trimethyl-6-oxo-5H-pyrimido[4,5-b][1,4]diazepin-2-ylamino)-N—((S)-tetrahydrofuran-3-yl)-3-methoxybenzamide]	< 10 nM
COc1cc(C(=O)NC2CCCC2)ccc1Nc1ncc2c(n1)N(C1CCCC1)C[C@H](C)C(=O)N2C [Compound I-173, 4-((S)-9-cyclopentyl-6,7,8,9-tetrahydro-5,7-dimethyl-6-oxo-5H-pyrimido[4,5-b][1,4]diazepin-2-ylamino)-N-cyclopentyl-3-methoxybenzamide]	< 10 nM
COc1cc(C(=O)NC2CCCC2)ccc1Nc1ncc2c(n1)N(C1CCCC1)CC1(CC1)C(=O)N2C [Compound I-176, N-cyclopentyl-4-(9′-cyclopentyl-5′-methyl-6′-oxo-5′,6′,8′,9′-tetrahydrospiro[cyclopropane-1,7′-pyrimido[4,5-b][1,4]diazepine]-2′-ylamino)-3-methoxybenzamide]	< 10 nM
COc1cc(C(=O)N[C@H]2CCOC2)ccc1Nc1ncc2c(n1)N(C1CCCC1)CC1(CC1)C(=O)N2C [Compound I-179, (S)-4-(9′-cyclopentyl-5′-methyl-6′-oxo-5′,6′,8′,9′-tetrahydrospiro[cyclopropane-1,7′-pyrimido[4,5-b][1,4]diazepine]-2′-ylamino)-3-methoxy-N-(tetrahydrofuran-3-yl)benzamide]	< 10 nM
CNC(=O)c1ccc(Nc2ncc3c(n2)N([C@@H]2CCOC2)CC(C)(C)C(=O)N3C)c(OC)c1 [Compound I-181, 4-(6,7,8,9-tetrahydro-9-((R)-tetrahydrofuran-3-yl)-5,7,7-trimethyl-6-oxo-5H-pyrimido[4,5-b][1,4]diazepin-2-ylamino)-3-methoxy-N-methylbenzamide]	< 10 nM
COc1cc(C(=O)N[C@H]2CCOC2)ccc1Nc1ncc2c(n1)N(C1CCCC1)C[C@@H](C)C(=O)N2C [Compound I-183, 4-((R)-9-cyclopentyl-5,7-dimethyl-6-oxo-6,7,8,9-tetrahydro-5H-pyrimido[4,5-b][1,4]diazepin-2-ylamino)-3-methoxy-N—((S)-tetrahydrofuran-3-yl)benzamide]	< 10 nM
COc1cc(C(=O)NC2CC2)ccc1Nc1ncc2c(n1)N(C1CCCC1)C[C@@H](C)C(=O)N2C [Compound I-184, (R)-4-(9-cyclopentyl-5,7-dimethyl-6-oxo-6,7,8,9-tetrahydro-5H-pyrimido[4,5-b][1,4]diazepin-2-ylamino)-N-cyclopropyl-3-methoxybenzamide]	< 10 nM
COc1cc(C(=O)NC2CCCC2)ccc1Nc1ncc2c(n1)N(C1CCCC1)C[C@@H](C)C(=O)N2C [Compound I-185, (R)—N-cyclopentyl-4-(9-cyclopentyl-5,7-dimethyl-6-oxo-6,7,8,9-tetrahydro-5H-pyrimido[4,5-b][1,4]diazepin-2-ylamino)-3-methoxybenzamide]	< 10 nM
COc1cc(C(=O)NC2CCC2)ccc1Nc1ncc2c(n1)N(C1CCCC1)C[C@@H](C)C(=O)N2C [Compound I-186, (R)—N-cyclobutyl-4-(9-cyclopentyl-5,7-dimethyl-6-oxo-6,7,8,9-tetrahydro-5H-pyrimido[4,5-b][1,4]diazepin-2-ylamino)-3-methoxybenzamide]	< 10 nM
COc1cc(C(=O)N[C@@H]2CCOC2)ccc1Nc1ncc2c(n1)N(C1CCCC1)CC(C)(C)C(=O)N2C [Compound I-187, (R)-4-(9-cyclopentyl-5,7,7-trimethyl-6-oxo-6,7,8,9-tetrahydro-5H-pyrimido[4,5-b][1,4]diazepin-2-ylamino)-3-methoxy-N-(tetrahydrofuran-3-yl)benzamide]	< 10 nM
CCC1CN(C2CCCC2)c2nc(Nc3ccc(C(=O)NC)cc3OC)ncc2N(C)C1=O (stereo not shown) [Compound I-190, 4-(9-cyclopentyl-7-ethyl-5-methyl-6-oxo-6,7,8,9-tetrahydro-5H-pyrimido[4,5-b][1,4]diazepin-2-ylamino)-3-methoxy-N-methylbenzamide]	< 10 nM
CNC(=O)c1ccc(Nc2ncc3c(n2)N(C2CC4CCC2C4)CC(C)(C)C(=O)N3C)c(OC)c1 (stereo not shown) [Compound I-191, 4-(9-(bicyclo[2.2.1]heptan-2-yl)-5,7,7-trimethyl-6-oxo-6,7,8,9-tetrahydro-5H-pyrimido[4,5-b][1,4]diazepin-2-ylamino)-3-methoxy-N-methylbenzamide]	< 10 nM
CNC(=O)c1ccc(Nc2ncc3c(n2)N(CC2CNCCO2)CC(C)(C)C(=O)N3C)c(OC)c1 (stereo not shown) [Compound I-192, 3-methoxy-N-methyl-4-(5,7,7-trimethyl-9-(morpholin-2-ylmethyl)-6-oxo-6,7,8,9-tetrahydro-5H-pyrimido[4,5-b][1,4]diazepin-2-ylamino)benzamide]	< 10 nM and 10 to 100 nM
COc1cc(C(=O)NCc2ccco2)ccc1Nc1ncc2c(n1)N(C1CCCC1)CC(C)(C)C(=O)N2C [Compound I-193, 4-(9-cyclopentyl-5,7,7-trimethyl-6-oxo-6,7,8,9-tetrahydro-5H-pyrimido[4,5-b][1,4]diazepin-2-ylamino)-N-(furan-2-ylmethyl)-3-methoxybenzamide]	< 10 nM

Other lines, results leading:

Ki	Compound
< 10 nM	COc1cc(C(=O)NC2CC(F)(F)C2)ccc1Nc1ncc2c(n1)N(C1CCCC1)CC(C)(C)C(=O)N2C [Compound I-166, 4-(9-cyclopentyl-6,7,8,9-tetrahydro-5,7,7-trimethyl-6-oxo-5H-pyrimido[4,5-b][1,4]diazepin-2-ylamino)-N-(3,3-difluorocyclobutyl)-3-methoxybenzamide]
10 to 100 nM	CNC(=O)c1ccc(Nc2ncc3c(n2)N(CC(C)(C)C)CC(C)(C)C(=O)N3C)c(OC)c1 [Compound I-168, 4-(6,7,8,9-tetrahydro-5,7,7-trimethyl-9-neopentyl-6-oxo-5H-pyrimido[4,5-b][1,4]diazepin-2-ylamino)-3-methoxy-N-methylbenzamide]
< 10 nM	CNC(=O)c1ccc(Nc2ncc3c(n2)N(CC2CC2(F)F)CC(C)(C)C(=O)N3C)c(OC)c1 (stereo not shown) [Compound I-169, 4-(9-((2,2-difluorocyclopropyl)methyl)-6,7,8,9-tetrahydro-5,7,7-trimethyl-6-oxo-5H-pyrimido[4,5-b][1,4]diazepin-2-ylamino)-3-methoxy-N-methylbenzamide]
< 10 nM	COc1cc(C(=O)NC2CCOCC2)ccc1Nc1ncc2c(n1)N(C1CCCC1)C[C@H](C)C(=O)N2C [Compound I-174, 4-((S)-9-cyclopentyl-6,7,8,9-tetrahydro-5,7-dimethyl-6-oxo-5H-pyrimido[4,5-b][1,4]diazepin-2-ylamino)-N-(tetrahydro-2H-pyran-4-yl)-3-methoxybenzamide]
< 10 nM	COc1cc(C(=O)NC2CC2)ccc1Nc1ncc2c(n1)N(C1CCCC1)C[C@H](C)C(=O)N2C [Compound I-175, 4-((S)-9-cyclopentyl-6,7,8,9-tetrahydro-5,7-dimethyl-6-oxo-5H-pyrimido[4,5-b][1,4]diazepin-2-ylamino)-N-cyclopropyl-3-methoxybenzamide]
< 10 nM	COc1cc(C(=O)NC2CCOCC2)ccc1Nc1ncc2c(n1)N(C1CCCC1)CC1(CC1)C(=O)N2C [Compound I-177, 4-(9′-cyclopentyl-5′-methyl-6′-oxo-5′,6′,8′,9′-tetrahydrospiro[cyclopropane-1,7′-pyrimido[4,5-b][1,4]diazepine]-2′-ylamino)-3-methoxy-N-(tetrahydro-2H-pyran-4-yl)benzamide]
< 10 nM	COc1cc(C(=O)NC2CC2)ccc1Nc1ncc2c(n1)N(C1CCCC1)CC1(CC1)C(=O)N2C [Compound I-178, 4-(9′-cyclopentyl-5′-methyl-6′-oxo-5′,6′,8′,9′-tetrahydrospiro[cyclopropane-1,7′-pyrimido[4,5-b][1,4]diazepine]-2′-ylamino)-N-cyclopropyl-3-methoxybenzamide]
< 10 nM	CNC(=O)c1ccc(Nc2ncc3c(n2)N([C@H]2CCOC2)CC(C)(C)C(=O)N3C)c(OC)c1 [Compound I-180, 4-(6,7,8,9-tetrahydro-9-((S)-tetrahydrofuran-3-yl)-5,7,7-trimethyl-6-oxo-5H-pyrimido[4,5-b][1,4]diazepin-2-ylamino)-3-methoxy-N-methylbenzamide]
< 10 nM	COc1cc(C(=O)NC2CCOCC2)ccc1Nc1ncc2c(n1)N(C1CCCC1)C[C@@H](C)C(=O)N2C [Compound I-182, (R)-4-(9-cyclopentyl-5,7-dimethyl-6-oxo-6,7,8,9-tetrahydro-5H-pyrimido[4,5-b][1,4]diazepin-2-ylamino)-3-methoxy-N-(tetrahydro-2H-pyran-4-yl)benzamide]
10 to 100 nM	COc1ccccc1Nc1ncc2c(n1)N(C1CCCC1)CCC(=O)N2C [Compound I-188, 9-cyclopentyl-2-(2-methoxyphenylamino)-5-methyl-8,9-dihydro-5H-pyrimido[4,5-b][1,4]diazepin-6(7H)-one]
< 10 nM	COc1cc(C(=O)NCC2CCCO2)ccc1Nc1ncc2c(n1)N(C1CCCC1)CC(C)(C)C(=O)N2C (stereo not shown) [Compound I-194, 4-(9-cyclopentyl-5,7,7-trimethyl-6-oxo-6,7,8,9-tetrahydro-5H-pyrimido[4,5-b][1,4]diazepin-2-ylamino)-3-methoxy-N-((tetrahydrofuran-2-yl)methyl)benzamide]
